ChEMBL document CHEMBL2062514 (J Med Chem, 2012)

Legend:
Adenosine receptor A2a = Adenosine receptor A2a (Homo sapiens, UniProt P29274); experiment: Displacement of [3H]CGS21680 from human recombinant adenosine A2A receptor expressed in HEK293 cells at 10 uM after 60 mins by liquid scintillation counting; assay type: cell-based
Adenosine receptor A1 [1] = biological target: T1, Adenosine receptor A1 (Mus musculus, UniProt Q60612); experiment: Displacement of [125I]I-AB-MECA from mouse adenosine A1 receptor expressed in HEK293 cells after 60 mins by liquid scintillation counting
T1 sequence (Q60612 whole entry): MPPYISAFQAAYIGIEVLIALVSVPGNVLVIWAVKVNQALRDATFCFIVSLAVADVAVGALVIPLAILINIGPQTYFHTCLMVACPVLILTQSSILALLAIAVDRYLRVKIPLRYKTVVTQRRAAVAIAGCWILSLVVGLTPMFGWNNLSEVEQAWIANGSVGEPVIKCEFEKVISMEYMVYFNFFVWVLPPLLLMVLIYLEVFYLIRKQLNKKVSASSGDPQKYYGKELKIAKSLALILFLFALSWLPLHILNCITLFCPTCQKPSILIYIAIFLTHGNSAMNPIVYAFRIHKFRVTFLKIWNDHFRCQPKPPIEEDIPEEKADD

Adenosine receptor A3 [2] = biological target: T2, Adenosine receptor A3 (Mus musculus, UniProt Q61618); experiment: Displacement of [125I]I-AB-MECA from mouse adenosine A3 receptor expressed in HEK293 cells after 60 mins by liquid scintillation counting
T2 sequence (Q61618 whole entry): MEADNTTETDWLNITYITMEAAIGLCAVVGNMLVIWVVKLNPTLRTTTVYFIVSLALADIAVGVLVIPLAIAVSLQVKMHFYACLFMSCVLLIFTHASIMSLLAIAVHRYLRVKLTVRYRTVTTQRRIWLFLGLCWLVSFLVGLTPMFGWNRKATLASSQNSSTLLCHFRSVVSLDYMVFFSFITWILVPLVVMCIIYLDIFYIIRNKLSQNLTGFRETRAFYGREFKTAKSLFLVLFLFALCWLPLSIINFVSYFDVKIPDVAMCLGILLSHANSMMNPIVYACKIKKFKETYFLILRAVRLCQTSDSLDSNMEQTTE

Adenosine receptor A1 [3] = biological target: T3, Adenosine receptor A1 (Homo sapiens, UniProt P30542); experiment: Displacement of [3H]R-PIA from human recombinant adenosine A1 receptor expressed in CHO cells after 60 mins by liquid scintillation counting; assay type: cell-based
T3 sequence (P30542 whole entry): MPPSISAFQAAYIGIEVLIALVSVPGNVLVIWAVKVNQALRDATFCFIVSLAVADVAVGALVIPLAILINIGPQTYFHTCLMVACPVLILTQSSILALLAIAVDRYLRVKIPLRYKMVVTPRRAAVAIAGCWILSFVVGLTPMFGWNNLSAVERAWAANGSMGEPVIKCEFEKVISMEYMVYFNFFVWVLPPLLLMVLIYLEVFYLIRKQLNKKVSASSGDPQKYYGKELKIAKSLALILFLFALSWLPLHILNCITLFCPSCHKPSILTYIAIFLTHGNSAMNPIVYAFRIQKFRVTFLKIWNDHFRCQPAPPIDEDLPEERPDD

[4] = biological target: T4, Adenosine receptor A3 (Homo sapiens) (UniProt P0DMS8); experiment: Agonist activity at human recombinant adenosine A3 receptor expressed in CHO cells assessed as inhibition of forskolin-stimulated cAMP production at 10 uM incubated for 30 mins prior to forskolin-stimulation measured after 15 mins by enzyme immunoassay relative to NECA; assay type: functional, cell-based
T4 sequence (whole entry): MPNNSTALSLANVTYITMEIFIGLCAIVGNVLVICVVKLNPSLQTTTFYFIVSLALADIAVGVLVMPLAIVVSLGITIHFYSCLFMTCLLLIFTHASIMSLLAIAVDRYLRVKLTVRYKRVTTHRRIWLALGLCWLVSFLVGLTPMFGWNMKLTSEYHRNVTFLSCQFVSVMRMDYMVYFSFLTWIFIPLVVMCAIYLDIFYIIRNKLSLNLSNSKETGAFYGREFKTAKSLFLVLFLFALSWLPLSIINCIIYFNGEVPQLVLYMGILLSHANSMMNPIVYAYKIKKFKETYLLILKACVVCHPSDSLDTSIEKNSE

[5] = biological target: Adenosine receptor A2a (Mus musculus) (UniProt Q60613); experiment: Displacement of [3H]CGS21680 from mouse adenosine A2A receptor expressed in HEK293 cells at 10 uM after 60 mins by liquid scintillation counting
Adenosine receptor A2a (Mus musculus), sequence (Q60613 whole entry): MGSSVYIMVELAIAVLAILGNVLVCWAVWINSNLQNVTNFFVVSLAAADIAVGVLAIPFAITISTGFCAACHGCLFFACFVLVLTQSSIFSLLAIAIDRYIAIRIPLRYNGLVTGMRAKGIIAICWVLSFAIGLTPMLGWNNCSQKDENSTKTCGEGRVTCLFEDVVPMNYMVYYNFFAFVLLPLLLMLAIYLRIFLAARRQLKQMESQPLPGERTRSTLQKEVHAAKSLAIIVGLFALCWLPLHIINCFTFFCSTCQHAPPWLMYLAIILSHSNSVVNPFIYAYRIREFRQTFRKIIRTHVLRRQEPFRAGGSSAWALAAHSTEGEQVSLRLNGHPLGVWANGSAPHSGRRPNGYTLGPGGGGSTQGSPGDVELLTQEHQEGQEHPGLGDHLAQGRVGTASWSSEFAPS

[6] = biological target: T5, Adenosine receptor A1 (Homo sapiens) (UniProt P30542); experiment: Displacement of [3H]R-PIA from human recombinant adenosine A1 receptor expressed in CHO cells at 10 uM after 60 mins by liquid scintillation counting; assay type: cell-based
T5 sequence (whole entry): T3 sequence (P30542 whole entry)

Adenosine receptor A3 [7] = biological target: T6, Adenosine receptor A3 (Homo sapiens, UniProt P0DMS8); experiment: Displacement of [3H]I-AB-MECA from human recombinant adenosine A3 receptor expressed in CHO cells after 60 mins by gamma counting; assay type: cell-based
T6 sequence (P0DMS8 whole entry): T4 sequence (whole entry)

Adenosine receptor A2a, sequence (P29274 whole entry): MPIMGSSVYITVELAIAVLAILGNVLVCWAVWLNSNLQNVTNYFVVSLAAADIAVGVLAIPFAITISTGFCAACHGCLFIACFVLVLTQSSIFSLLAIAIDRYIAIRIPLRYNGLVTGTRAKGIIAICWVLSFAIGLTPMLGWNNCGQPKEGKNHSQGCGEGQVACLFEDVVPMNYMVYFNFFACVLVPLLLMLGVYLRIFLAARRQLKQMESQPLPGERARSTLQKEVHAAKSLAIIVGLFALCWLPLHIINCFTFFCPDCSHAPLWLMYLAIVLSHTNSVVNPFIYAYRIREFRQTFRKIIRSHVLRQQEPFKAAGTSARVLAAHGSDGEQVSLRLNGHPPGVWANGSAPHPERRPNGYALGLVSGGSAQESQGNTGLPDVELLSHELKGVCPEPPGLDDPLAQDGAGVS

| Compound | inhibition (Adenosine receptor A2a) | Ki (Adenosine receptor A1 [1]) | Ki (Adenosine receptor A3 [2]) | Ki (Adenosine receptor A1 [3]) | Efficacy [4] | inhibition [5] | inhibition [6] | Ki (Adenosine receptor A3 [7]) |
| --- | --- | --- | --- | --- | --- | --- | --- | --- |
| CNC(=O)[C@@]12C[C@@H]1[C@@H](n1cnc3c(NCc4cccc(Cl)c4)nc(C#Cc4ccc(N)cc4)nc31)[C@H](O)[C@@H]2O | 44% | 261 nM | 0.82 nM | 1520 nM | 76.6% | 5% | – | – |
| CNC(=O)[C@@]12C[C@@H]1[C@@H](n1cnc3c(NCc4cccc(Cl)c4)nc(C#Cc4cc5cccc6ccc7cccc4c7c65)nc31)[C@H](O)[C@@H]2O | 4% | – | – | – | 97.1% | – | 11% | 660 nM |
